For test [1], the target named is T1, Butyrylcholinesterase (EC 3.1.1.8, BChE) from equine serum (eqBChE) (Equus caballus, UniProt P81908).
T1 construct: Butyrylcholinesterase (EC 3.1.1.8, BChE) was from equine serum (eqBChE) (Sigma-Aldrich); purchased Sigma-Aldrich; host or cells: equine serum
Description: Butyrylcholinesterase inhibition, Ellman's method. It counts as biochemical. The conditions noted are these: for IC50: eqBChE, BTCI substrate, pH 8.0, 37 °C, mean ± SD of three independent experiments. How it is done: The effect of the benzofuran derivatives was evaluated on the commercial enzyme from an animal source due to its low cost and remarkable similarity with the human enzyme.
The cholinesterase inhibition activity was executed using Ellman’s method, as previously described with slight modifications.
S-Butyrylthiocholine iodide (BTCI) and 5,5′-dithiobis-(2-nitrobenzoic) acid (DTNB) (Merck/Sigma-Aldrich) were used for the determination of the BChE activity. Butyrylcholinesterase (EC 3.1.1.8, BChE) was from equine serum (eqBChE) (Sigma-Aldrich). We used 96-well plates for analysis, to each well we added 70 μL phosphate-buffered (0.1 M, pH 8.0), 4 μL different concentration of the tested compounds or dimethyl sulfoxide (for control experiment), 6 μL enzyme (final concentration 0.15 U/mL in buffer), and 100 μL DTNB (1.5 mM final). The solution was preincubated for 5 min at 37 °C, then 20 μL BTCI 1.5 mM solution as the substrate was added to the reaction mixture. The absorbance change was measured at 405 nm, with a microplate reader FLUOstar OPTIMA (BMG Labtech, Offenburg, Germany). […] Each experiment was done in triplicate.
The statistical significance of differences was evaluated using one-way analysis of variation (one-way ANOVA), and Tukey’s multiple comparisons. Results were expressed as mean ± standard deviation (SD), and statistically significant differences were evaluated with p < 0.001 as a minimal significance level.
(Ellman's reagent forms a yellow product with free thiols.)

For test [2], the target named is T1, Butyrylcholinesterase (EC 3.1.1.8, BChE) from equine serum (eqBChE).
Setting [3] is: read-out: IC50, inhibitory effect on BChE activity.
Where [4] appears, read: 2-phenylbenzofurans without spacer; cited from earlier work.

The structures appear in SMILES notation. “And” between values parts separate entries of the source, which are not always exact repeats. Equal entries are not always repeated. “Also recorded” adds a separate entry of the source. Where two headings read alike, the source gives them in different places. A value given as a limit tells only on which side of the number the result lay.

T1 sequence (P81908 whole entry): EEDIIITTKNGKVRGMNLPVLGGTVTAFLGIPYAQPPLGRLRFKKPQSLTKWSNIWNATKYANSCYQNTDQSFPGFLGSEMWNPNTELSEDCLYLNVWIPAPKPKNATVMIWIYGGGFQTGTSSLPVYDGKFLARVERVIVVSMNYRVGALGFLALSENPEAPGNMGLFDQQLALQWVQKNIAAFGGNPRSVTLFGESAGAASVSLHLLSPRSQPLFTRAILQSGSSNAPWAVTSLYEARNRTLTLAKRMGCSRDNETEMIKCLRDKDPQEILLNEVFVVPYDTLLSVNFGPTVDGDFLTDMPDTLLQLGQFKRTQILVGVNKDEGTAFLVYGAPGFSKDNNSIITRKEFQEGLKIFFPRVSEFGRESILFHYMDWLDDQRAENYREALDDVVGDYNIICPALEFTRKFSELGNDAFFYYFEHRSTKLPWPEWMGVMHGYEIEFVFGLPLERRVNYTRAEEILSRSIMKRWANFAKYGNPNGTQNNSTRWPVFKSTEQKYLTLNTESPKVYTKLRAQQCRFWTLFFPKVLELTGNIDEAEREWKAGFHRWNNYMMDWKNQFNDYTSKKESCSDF

A word on the IC50: it is the point on the concentration scale where inhibition reaches its midpoint. As to `Oc1cccc(Cc2cc3cccc(Br)c3o2)c1` [Compound 14B], the IC50 in test [1] (setting [3]) worked out at 31.37 ± 0.15 µM.

For the compound `Oc1cccc(-c2cc3cc(Br)ccc3o2)c1` [Compound 13A], the IC50 in test [1] (IC50, inhibitory effect on BChE activity) was determined as 10.6 ± 1.65 µM.

For `Oc1cccc(Cc2cc3cccc(Cl)c3o2)c1` [Compound 16B], the IC50 in test [1] (setting [3]) was 61.7 ± 5.9 µM.

Consider `Oc1ccc(-c2cc3cc(Cl)ccc3o2)cc1` [Compound 11A], for which, in test [2] (2-phenylbenzofurans given for comparison; read-out: IC50, inhibitory effect on BChE activity; cited from earlier work), the IC50 is greater than 100 µM.

As for `Oc1ccc(-c2cc3cccc(Br)c3o2)cc1` [Compound 10A], the “BChE inhibitory activity (in words)” value in test [2] (setting [4]) is “negligible inhibitory activity”.

In the case of `Oc1ccc(Cc2cc3cccc(Cl)c3o2)cc1` [Compound 12B], the IC50 in test [1] (setting [3]) stood at 43 ± 5.65 µM.

For `Oc1ccc(Cc2cc3cccc(Br)c3o2)cc1` [Compound 10B], the IC50 in test [1] (setting [3]) was 32.6 ± 2.04 µM.

With `Oc1ccc(Cc2cc3cc(Br)ccc3o2)cc1` [Compound 9B, 5-bromo-2-(4-hydroxybenzyl)benzofuran], in test [1] (BChE, ratio of IC50 values), the “inhibitory activity, fold higher than 14A” value is “about 4 fold” and the “inhibitory activity, times higher than galantamine” value came out at 10 times. For the same compound, the IC50 in test [1] (setting [3]) was 2.93 µM and 2.9 µM.

For `Oc1ccc(-c2cc3cc(Br)ccc3o2)cc1` [Compound 9A], in test [2] (setting [4]), the “BChE inhibitory activity (in words)” value is recorded as “no activity; also recorded: negligible inhibitory activity; also recorded: no BChE inhibition”. Also, in test [2] (read-out: IC50, inhibitory effect on BChE activity; 2-phenylbenzofurans given for comparison; cited from earlier work), the IC50 is greater than 100 µM.

As to `Oc1ccc(Cc2cc3cc(Cl)ccc3o2)cc1` [Compound 11B], the IC50 in test [1] (setting [3]) was found to be 55.7 ± 0.8 µM.

On to `Oc1cccc(Cc2cc3cc(Br)ccc3o2)c1` [Compound 13B], for which, in test [1] (setting [3]), the IC50 amounted to 39.9 ± 4.31 µM.

On to `Oc1cccc(Cc2cc3cc(Cl)ccc3o2)c1` [Compound 15B, 5-chloro-2-(3-hydroxybenzyl)benzofuran], for which the IC50 in test [1] (setting [3]) was found to be 27.8 ± 3.07 µM.

The record behind these values is paper PMC8955773 (Pharmaceuticals, 2022).
